Results on 6 molecules are retold here after patent publication US20230286946A1, “DIFLUOROMETHYL-PYRIDIN-2-YL TRIAZOLES” (Boehringer Ingelheim International GmbH, priority 2020, published 2023).

Series [1] is described as follows: Metabolic stability in human liver microsomes (Human MST). The class given is in vitro ADME. The settings on record: pH 7.6, pooled human liver microsomes, 37° C., read-out: Human MST t½. The procedure: Assessment of Metabolic Stability in Human Liver Microsomes (Human MST) The metabolic stability of the compounds according to the invention may be investigated as follows: The metabolic degradation of the test compound is assayed at 37° C. with pooled human liver microsomes. The final incubation volume of 100 μL per time point contains TRIS buffer pH 7.6 at room temperature (0.1 M), MgCl2 (5 mM), microsomal protein (1 mg/mL) and the test compound at a final concentration of 1 μM. Following a short pre-incubation period at 37° C., the reactions are initiated by addition of beta-nicotinamide adenine dinucleotide phosphate, reduced form (NADPH, 1 mM), and terminated by transferring an aliquot into solvent after different time points. After centrifugation (10000 g, 5 min), an aliquot of the supernatant is assayed by LCMS/MS for the amount of parent compound. The half-life (t1/2) is determined by the slope of the semi-logarithmic plot of the concentration-time profile.
On the technique in general: Microsomes from liver hold many membrane-bound enzymes, among them those of drug oxidation.

Series [2] addresses T1, human GABAA α5β3γ2s receptor (Homo sapiens, UniProt P18507+P31644).
T1 sequence (P18507 1-475): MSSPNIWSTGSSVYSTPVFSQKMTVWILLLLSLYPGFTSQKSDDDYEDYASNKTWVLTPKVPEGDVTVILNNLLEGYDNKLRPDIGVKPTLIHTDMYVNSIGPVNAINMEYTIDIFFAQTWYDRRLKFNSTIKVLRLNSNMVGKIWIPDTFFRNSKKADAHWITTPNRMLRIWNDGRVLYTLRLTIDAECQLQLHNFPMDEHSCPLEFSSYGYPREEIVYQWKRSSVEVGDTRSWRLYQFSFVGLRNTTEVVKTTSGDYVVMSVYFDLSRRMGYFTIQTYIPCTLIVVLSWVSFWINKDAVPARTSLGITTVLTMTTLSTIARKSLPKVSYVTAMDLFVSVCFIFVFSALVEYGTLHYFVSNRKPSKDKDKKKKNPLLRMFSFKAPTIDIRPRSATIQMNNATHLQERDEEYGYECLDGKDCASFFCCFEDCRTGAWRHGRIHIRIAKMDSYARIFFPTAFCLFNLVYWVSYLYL
T1 sequence (P31644 1-462): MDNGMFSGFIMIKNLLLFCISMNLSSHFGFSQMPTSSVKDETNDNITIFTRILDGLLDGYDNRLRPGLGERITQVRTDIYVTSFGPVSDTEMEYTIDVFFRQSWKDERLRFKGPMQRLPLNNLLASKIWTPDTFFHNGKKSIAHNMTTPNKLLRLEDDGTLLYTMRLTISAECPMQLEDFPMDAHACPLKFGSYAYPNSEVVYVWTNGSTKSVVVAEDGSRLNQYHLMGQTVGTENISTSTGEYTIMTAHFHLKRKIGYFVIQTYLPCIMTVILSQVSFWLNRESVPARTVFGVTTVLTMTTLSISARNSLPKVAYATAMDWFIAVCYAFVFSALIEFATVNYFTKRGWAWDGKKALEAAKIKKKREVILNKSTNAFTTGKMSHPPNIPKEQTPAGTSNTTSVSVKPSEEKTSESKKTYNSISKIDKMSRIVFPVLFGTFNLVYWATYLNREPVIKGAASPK
As to the kind of experiment: Assay A: in vitro inhibition of 3H-flumazenil binding, HEK cells expressing the human GABAA α5β3γ2s receptor.

Where [3] appears, read: read-out: Assay A: GABAA α 5 β 3 γ 2s Ki.

SMILES strings stand for the structures. Read-outs that look alike come from different tables or passages of the source. Some results are limits rather than exact numbers.

`Cc1ncnn1-c1ccc(OCc2c(-c3ccc(C(F)F)cn3)nnn2C)nn1` [Example 48, 3-({4-[5-(difluoromethyl)pyridin-2-yl]-1-methyl-1H-1,2,3-triazol-5-yl}methoxy)-6-(5-methyl-1H-1,2,4-triazol-1-yl)pyridazine]: the half-life at 1 μM in series [1] was more than 2.17 h. Also, the inhibitory constant (Ki) (usually a dissociation constant, usually derived from enzyme kinetics or from competition with a known ligand) in series [2] (setting [3]) amounted to 82 nM.

With `Cn1nnc(-c2ccc(C(F)F)cn2)c1COc1ccc(-n2cc(C#N)cn2)nn1` [Example 49], the half-life at 1 μM in series [1] is more than 2.17 h. For the same molecule, the Ki in series [2] (setting [3]) worked out at 25 nM.

`Cn1nnc(-c2ccc(C(F)F)cn2)c1COc1ccc(-n2cccn2)nn1` [Example 50]: in series [1], the half-life at 1 μM is 2.17 h. Further, the inhibitory constant (Ki) in series [2] (setting [3]) is 22 nM.

As for `Cn1nnc(-c2ccc(C(F)F)cn2)c1COc1ccc(-n2cnc(C#N)c2)nn1` [Example 52], in series [1], the half-life at 1 μM is more than 2.17 h. In addition, in series [2] (setting [3]), the inhibition constant Ki was determined as 35 nM.

Regarding `Cn1nnc(-c2ccc(C(F)F)cn2)c1COc1ccc(-n2ccc(C#N)n2)nn1` [Example 53], the half-life at 1 μM in series [1] was more than 2.17 h. For the same molecule, the inhibitory constant (Ki) in series [2] (setting [3]) was determined as 19 nM.

For the molecule `Cc1nnn(-c2ccc(C(F)F)cn2)c1COc1ccc(-c2cnccn2)nn1` [Example 56, 3-({1-[5-(difluoromethyl)pyridin-2-yl]-4-methyl-1H-1,2,3-triazol-5-yl}methoxy)-6-(pyrazin-2-yl)pyridazine], in series [1], the half-life at 1 μM is more than 2.17 h. For the same molecule, the Ki in series [2] (compounds of the present invention, read-out: Assay A: GABAA α5 β3 γ2S Ki) amounted to 0.01 nM; in series [2] (setting [3]) it was 10 nM.
